# Experimental data reported in patent publication US8076487B2, “Pyridone derivative and herbicide” (Kumiai Chemical Industry Co., Ltd., priority 2006, dated 2011).
# Experiments:
# Type in all cases: in vivo
# [1] = tested on: barnyardgrass (Echinochloa crus-galli (L.) P. Beauv. var. crus-galli); assay: Test Example 2: herbicidal effect by soil application to upland field; conditions: soil surface spray, upland field soil, 1,000 g active ingredient per hectare, 21st day after application
# Outline: (§1)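 Seeds were sown in field soil, covered, and the soil surface sprayed with a water-diluted wettable powder at 1,000 g active ingredient per hectare in 1,000 L/ha. Plants grew in a greenhouse, and herbicidal effect was rated against a standard scale 21 days after application.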
# [2] = tested on: green foxtail (Setaria viridis (L.) P. Beauv.); assay: as above; conditions: soil surface spray, upland field soil, 1,000 g active ingredient per hectare, 21st day after application
# Outline: as §1
# [3] = tested on: slender amaranth (Amaranthus viridis L.); assay: as above; conditions: soil surface spray, upland field soil, 1,000 g active ingredient per hectare, 21st day after application
# Outline: as §1
# [4] = tested on: velvetleaf (Abutilon theophrasti medicus); assay: as above; conditions: soil surface spray, upland field soil, 1,000 g active ingredient per hectare, 21st day after application
# Outline: as §1
# [5] = tested on: heartshape false pickerelweed (Monochoria vaginalis (Burm.f.) C.Presl); assay: Test Example 1: herbicidal effect by soil application to paddy field; conditions: paddy field soil application; active ingredient 1,000 g per 1 hectare; wettable powder added dropwise to water surface the day after sowing; examined on the 21st day after application
# Outline: (§2)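 Plants were sown in flooded (3 cm) paddy soil and evaluated for herbicidal effect 21 days after soil application in a greenhouse.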
# [6] = tested on: early watergrass (Echinochloa oryzicola Vasing); assay: as above; conditions: paddy field soil application; active ingredient 1,000 g per 1 hectare; wettable powder added dropwise to water surface the day after sowing; examined on the 21st day after application
# Outline: as §2
# [7] = tested on: Japanese bulrush (Scirpus juncoides Roxb.); assay: as above; conditions: paddy field soil application; active ingredient 1,000 g per 1 hectare; wettable powder added dropwise to water surface the day after sowing; examined on the 21st day after application
# Outline: as §2
# [8] = tested on: barnyardgrass (Echinochloa crus-galli (L.) P. Beauv. var. crus-galli); assay: Test Example 3: herbicidal effect by application to upland field (foliage treatment); conditions: foliage treatment, 1,000 g active ingredient per 1 hectare, 14th day after application, greenhouse
# Outline: (§3)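 Field-soil pots sown with the four weed species and grown two weeks in a greenhouse, then sprayed over the whole plant with wettable powder in water at 1,000 g active ingredient/ha in 1,000 L/ha. Herbicidal effect scored against a rating standard 14 days after treatment.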
# [9] = tested on: green foxtail (Setaria viridis (L.) P. Beauv.); assay: as above; conditions: foliage treatment, 1,000 g active ingredient per 1 hectare, 14th day after application, greenhouse
# Outline: as §3
# [10] = tested on: slender amaranth (Amaranthus viridis L.); assay: as above; conditions: foliage treatment, 1,000 g active ingredient per 1 hectare, 14th day after application, greenhouse
# Outline: as §3
# [11] = tested on: velvetleaf (Abutilon theophrasti medicus); assay: as above; conditions: foliage treatment, 1,000 g active ingredient per 1 hectare, 14th day after application, greenhouse
# Outline: as §3
SMILES,"herbicidal effect (index), Barnyardgrass [1]","herbicidal effect (index), Green Foxtail [2]","herbicidal effect (index), Slender Amaranth [3]","herbicidal effect (index), Velvetleaf [4]","herbicidal effect, Monochoria vaginalis (Burm. f.) C. Presl [5]","herbicidal effect, Echinochloa oryzicola Vasing [6]","herbicidal effect, Scirpus juncoides Roxb. [7]","herbicidal effect, Barnyardgrass [8]","herbicidal effect, Green Foxtail [9]","herbicidal effect, Slender Amaranth [10]","herbicidal effect, Velvetleaf [11]"
COCCCn1c(C(F)(F)F)ccc(C(=O)C2=C(O)C3CCC(C3)C2=O)c1=O (stereo not shown) [III-22],5 (90% or more of herbicidal effect and crop phytotoxicity),5 (90% or more of herbicidal effect and crop phytotoxicity),5 (90% or more of herbicidal effect and crop phytotoxicity),5 (90% or more of herbicidal effect and crop phytotoxicity),5 (90% or more of herbicidal effect and crop phytotoxicity),5 (90% or more of herbicidal effect and crop phytotoxicity),5 (90% or more of herbicidal effect and crop phytotoxicity),5 (90% or more of herbicidal effect and crop phytotoxicity),5 (90% or more of herbicidal effect and crop phytotoxicity),5 (90% or more of herbicidal effect and crop phytotoxicity),5 (90% or more of herbicidal effect and crop phytotoxicity)
COCCOCCn1c(C(F)(F)F)ccc(C(=O)C2=C(O)C3CCC(C3)C2=O)c1=O (stereo not shown) [III-23],5 (90% or more of herbicidal effect and crop phytotoxicity),5 (90% or more of herbicidal effect and crop phytotoxicity),5 (90% or more of herbicidal effect and crop phytotoxicity),5 (90% or more of herbicidal effect and crop phytotoxicity),5 (90% or more of herbicidal effect and crop phytotoxicity),5 (90% or more of herbicidal effect and crop phytotoxicity),5 (90% or more of herbicidal effect and crop phytotoxicity),5 (90% or more of herbicidal effect and crop phytotoxicity),5 (90% or more of herbicidal effect and crop phytotoxicity),5 (90% or more of herbicidal effect and crop phytotoxicity),5 (90% or more of herbicidal effect and crop phytotoxicity)
COC(C)Cn1c(C(F)(F)F)ccc(C(=O)C2=C(O)C3CCC(C3)C2=O)c1=O (stereo not shown) [III-24],5 (90% or more of herbicidal effect and crop phytotoxicity),5 (90% or more of herbicidal effect and crop phytotoxicity),5 (90% or more of herbicidal effect and crop phytotoxicity),5 (90% or more of herbicidal effect and crop phytotoxicity),5 (90% or more of herbicidal effect and crop phytotoxicity),5 (90% or more of herbicidal effect and crop phytotoxicity),5 (90% or more of herbicidal effect and crop phytotoxicity),5 (90% or more of herbicidal effect and crop phytotoxicity),5 (90% or more of herbicidal effect and crop phytotoxicity),5 (90% or more of herbicidal effect and crop phytotoxicity),5 (90% or more of herbicidal effect and crop phytotoxicity)
COC(Cn1c(C(F)(F)F)ccc(C(=O)C2=C(O)C3CCC(C3)C2=O)c1=O)OC (stereo not shown) [III-25],5 (90% or more of herbicidal effect and crop phytotoxicity),5 (90% or more of herbicidal effect and crop phytotoxicity),5 (90% or more of herbicidal effect and crop phytotoxicity),5 (90% or more of herbicidal effect and crop phytotoxicity),5 (90% or more of herbicidal effect and crop phytotoxicity),5 (90% or more of herbicidal effect and crop phytotoxicity),5 (90% or more of herbicidal effect and crop phytotoxicity),5 (90% or more of herbicidal effect and crop phytotoxicity),5 (90% or more of herbicidal effect and crop phytotoxicity),5 (90% or more of herbicidal effect and crop phytotoxicity),5 (90% or more of herbicidal effect and crop phytotoxicity)
CSCCn1c(C(F)(F)F)ccc(C(=O)C2=C(O)C3CCC(C3)C2=O)c1=O (stereo not shown) [III-28],5 (90% or more of herbicidal effect and crop phytotoxicity),5 (90% or more of herbicidal effect and crop phytotoxicity),5 (90% or more of herbicidal effect and crop phytotoxicity),5 (90% or more of herbicidal effect and crop phytotoxicity),5 (90% or more of herbicidal effect and crop phytotoxicity),5 (90% or more of herbicidal effect and crop phytotoxicity),5 (90% or more of herbicidal effect and crop phytotoxicity),5 (90% or more of herbicidal effect and crop phytotoxicity),5 (90% or more of herbicidal effect and crop phytotoxicity),5 (90% or more of herbicidal effect and crop phytotoxicity),5 (90% or more of herbicidal effect and crop phytotoxicity)
C[S+]([O-])CCn1c(C(F)(F)F)ccc(C(=O)C2=C(O)C3CCC(C3)C2=O)c1=O (stereo not shown) [III-29],5 (90% or more of herbicidal effect and crop phytotoxicity),5 (90% or more of herbicidal effect and crop phytotoxicity),5 (90% or more of herbicidal effect and crop phytotoxicity),5 (90% or more of herbicidal effect and crop phytotoxicity),5 (90% or more of herbicidal effect and crop phytotoxicity),5 (90% or more of herbicidal effect and crop phytotoxicity),5 (90% or more of herbicidal effect and crop phytotoxicity),5 (90% or more of herbicidal effect and crop phytotoxicity),5 (90% or more of herbicidal effect and crop phytotoxicity),5 (90% or more of herbicidal effect and crop phytotoxicity),5 (90% or more of herbicidal effect and crop phytotoxicity)
C[S+]([O-])CCCn1c(C(F)(F)F)ccc(C(=O)C2=C(O)C3CCC(C3)C2=O)c1=O (stereo not shown) [III-32],5 (90% or more of herbicidal effect and crop phytotoxicity),5 (90% or more of herbicidal effect and crop phytotoxicity),5 (90% or more of herbicidal effect and crop phytotoxicity),5 (90% or more of herbicidal effect and crop phytotoxicity),5 (90% or more of herbicidal effect and crop phytotoxicity),5 (90% or more of herbicidal effect and crop phytotoxicity),5 (90% or more of herbicidal effect and crop phytotoxicity),5 (90% or more of herbicidal effect and crop phytotoxicity),5 (90% or more of herbicidal effect and crop phytotoxicity),5 (90% or more of herbicidal effect and crop phytotoxicity),5 (90% or more of herbicidal effect and crop phytotoxicity)
CS(=O)(=O)CCCn1c(C(F)(F)F)ccc(C(=O)C2=C(O)C3CCC(C3)C2=O)c1=O (stereo not shown) [III-33],4 (70 to less than 90% of herbicidal effect and crop phytotoxicity),5 (90% or more of herbicidal effect and crop phytotoxicity),5 (90% or more of herbicidal effect and crop phytotoxicity),5 (90% or more of herbicidal effect and crop phytotoxicity),5 (90% or more of herbicidal effect and crop phytotoxicity),5 (90% or more of herbicidal effect and crop phytotoxicity),5 (90% or more of herbicidal effect and crop phytotoxicity),5 (90% or more of herbicidal effect and crop phytotoxicity),5 (90% or more of herbicidal effect and crop phytotoxicity),5 (90% or more of herbicidal effect and crop phytotoxicity),5 (90% or more of herbicidal effect and crop phytotoxicity)
